Reference: patent US7618946B2, “Analgesic compounds, extracts containing same and methods of preparation” (Griffith University, priority 2003, dated 2009)
“Also recorded” adds a separate entry of the source.

Legend:
[1] = system: mice; conditions: cited from earlier work; for response in both early and late phases: known analgesics [61]; for effect on late phase: anti-inflammatory compounds and steroids [61]; for analgesia in both phases of the formalin test: [61]
[2] = system: Male Quackenbush mice; test: mouse formalin assay; assay type: in vivo
Method: The formalin assay involves the subcutaneous injection of a small amount of formalin into the fore or hind paw of a rat or mouse and the behavioural response to this injection is recorded as a measure of pain response.
The formalin assay was preformed on male mice using morphine, and other compounds of interest, as an analgesic, to test the viability and reliability of the assay as a means of measuring pain response in mice.
Male Quackenbush mice weighing 25-35 g were used. They were housed in colony cages (400×300×130 mm; Wiretainers) with ad libitum access to food (standard rat/mouse pellets; Norco Feeds) and water. For short term storage a maximum of 15-16 mice were housed per cage while for longer periods this number was reduced to less than 10 mice per cage. Bedding material was wood shavings or more commonly recycled paper pellets (Breeders Choice).
Formalin (Ajax) was supplied as solution of approximately 37.5% formaldehyde containing 10% methanol as a preservative. […]
Morphine and other compounds of interest were injected in a volume of 10 mL/kg intraperitoneally (ip) 30 minutes prior to formalin administration. […] The sole behavioural response recorded was the amount of time the animal spent biting or licking the injected paw or leg per 5 minute block was recorded. […]
Using this value a percentage pain inhibition can be calculated using the formula:—

[3] = cited from earlier work; for inhibition of acetic acid induced writhing: 10 and 30 mg/kg (sc) [56]; for ED50: acetic acid writhing test [52]
[4] = system: FCA-rats; test: side effects observed after i.v. bolus doses in FCA-rats; assay type: in vivo, Sprague-Dawley rats; design: key to Intensity: 0 = none; 1 = mild; 2 = moderate; 3 = severe; 4 = extreme
Method: Each of the compounds F70.3.2 and F70.3.6 were dissolved in sterile saline. The compounds of interest were administered initially in a dose of 0.01 mg/kg in an injection volume of 0.5 mL. The other i.v. doses administered in this preliminary study were as follows: […]

[5] = system: FCA-rats; test: paw pressure test in rat model of inflammatory pain (FCA); assay type: in vivo, Sprague-Dawley rats; conditions: i.v. bolus; for dose-response of antinociceptive effect (AUC versus dose): ipsilateral hindpaw, FIG. 68
Method: Adult male Sprague-Dawley rats were housed in a temperature controlled room (21±2° C.) with a 12 h/12 h light/dark cycle and free access to both food and water. Ethical approval for this study was obtained from the Animal Experimentation Ethics Committee of The University of Queensland.
Inflammation of the rat hindpaw was induced by intra-plantar (i.pl.) injection of Freund's Complete Adjuvant (FCA, 0.15 mL) whilst rats were under brief 3% isoflurane: 97% oxygen inhalational anaesthesia. Inflammatory pain was assessed using the paw pressure test (see below for details). The test compounds were administered on either day 5 or day 6 following i.pl. FCA administration.
Jugular vein cannulation was performed whilst rats were anaesthetised with 3% isoflurane: 97% O2 inhalational anaesthesia maintained using a calibrated Trilene vapouriser. Polyethylene cannulae (previously filled with heparinised saline) were implanted into the right common jugular vein for i.v. drug dosing. Cannulae were exteriorized by subcutaneous (s.c.) tunneling to an incision made in the interscapular area, and protected by a stainless steel spring, the base of which was positioned in a subcutaneous pocket between the scapulae. Incisions were closed with sterile silk sutures. After surgery, rats were housed singly in metabolic cages and were allowed to recover post-operatively for a minimum of 2 h before further experimentation. Food and water were available ad libitum during the recovery period.
Each of the compounds F70.3.2 and F70.3.6 were dissolved in sterile saline. The compounds of interest were administered initially in a dose of 0.01 mg/kg in an injection volume of 0.5 mL. The other i.v. doses administered in this preliminary study were as follows:
Control rats received bolus doses of i.v. saline. Antinociceptive Testing: Paw Pressure Test
For the paw pressure test, rats were gently restrained under a towel, and incremental mechanical pressure (maximum=250 g) was applied to the dorsal surface of the hindpaw. The pressure required to elicit paw withdrawal, the paw pressure threshold (PPT), was determined. The mean of 3 consecutive measurements, separated by 10 s, was determined. The same procedure was then performed on the contralateral side with the sequence of sides being alternated to preclude order effects. Similarly, rats were gently restrained under a towel for the quantification of paw volumes using a plethysmometer.
Following administration of i.v. bolus doses of each of the test compounds (F70.3.2 and F70.3.6), paw withdrawal thresholds (g) were normalized by subtraction of the individual baseline PWT values quantified immediately prior to drug administration. The area under the normalized PWT versus time (AUC) was calculated using the trapezoidal rule. Dose-response curves were constructed by plotting the AUC values versus the i.v. dose for each of F70.3.2 and F70.3.6.

[6] = system: mice; conditions: mice [59]; cited from earlier work
[7] = system: mice; conditions: mice [59]; cited from earlier work; remark: listed apart in the source
[8] = i.v. 0.005 mg/kg, Apnoea, Table 19
[9] = i.v. 0.02 mg/kg, Apnoea, Table 19
[10] = i.v. 0.02 mg/kg, Staring, Table 19
[11] = i.v. 0.005 mg/kg, Body shaking, Table 20
[12] = i.v. 0.01 mg/kg, Body shaking, Table 20
[13] = i.v. 0.02 mg/kg, Staring, Table 20
[14] = i.v. 0.05 mg/kg, Apnoea, Table 20
[15] = i.v. 0.05 mg/kg, Staring, Table 20

COc1ccc2c3c1O[C@H]1[C@@H](O)C=C[C@H]4[C@@H](C2)N(C)CC[C@@]341 [codeine]
response in both early and late phases [1]: can be reduced

CN1CC[C@]23c4c5ccc(O)c4O[C@H]2[C@@H](O)C=C[C@H]3[C@H]1C5 [morphine]
ED50 ([2]; Mus musculus, ip, read-out: ED50 (morphine dose response curve, pain inhibition)): 4.8 mg/kg
analgesia induced ([1]; at 6 mg/kg [64]): almost complete analgesia
response in both early and late phases [1]: can be reduced
ED50, entire experimental period ([1]; subcutaneous, entire experimental period [63]): 4.8 mg/kg

CN1CCOC(c2ccccc2)c2ccccc2C1 (centres unmarked) [nefopam]
response in both early and late phases [1]: can be reduced

CC1(C)CC[C@]2(C(=O)O[C@@H]3O[C@H](CO)[C@@H](O)[C@H](O)[C@H]3O)CC[C@]3(C)C(=CC[C@@H]4[C@@]5(C)CC[C@H](O[C@@H]6O[C@H](CO)[C@@H](O)[C@H](O)[C@H]6O)[C@@](C)(C(=O)O)[C@@H]5CC[C@]43C)[C@@H]2C1 [Dianoside A]
inhibition of acetic acid induced writhing [3]: significantly inhibit

CC(=O)OCC12C(O)CC3(C)C(=CCC4C5(C)CCC(OC6OC(C(=O)O)C(O)C(OC7OCC(O)C(O)C7O)C6OC6OC(CO)C(O)C(O)C6O)C(C)(C)C5CCC43C)C1CC(C)(C)C(OC(=O)c1ccccc1)C2O [Compound F70.3.2, 3-O-β-D-xylopyranosyl(1→3)-[β-D-galactopyranosyl(1→2)]-β-D-glucuronopyranosyl-21-O-benzoyl-28-O-acetyl barringtogenol C]
Duration [4, 8]: 0.5 min
Intensity [4, 8]: 1
No of rats observed with side-effect [4, 8]: 1/3
Onset [4, 8]: 180 min
Side effect ([4]; i.v. 0.005 mg/kg, Table 19): Apnoea
Duration [4, 9]: 15 min
Intensity [4, 9]: 1
No of rats observed with side-effect [4, 9]: 1/3
Onset [4, 9]: 30 min
Duration [4, 10]: 15 min
Intensity [4, 10]: 1
No of rats observed with side-effect [4, 10]: 1/3
Onset [4, 10]: 30 min
Side effect ([4]; i.v. 0.02 mg/kg, Table 19, 0.02 mg/kg): Apnoea; also recorded: Staring
antinociception, contralateral (non-inflamed) hindpaw [5]: absence of antinociception
antinociception, ipsilateral (inflamed) hindpaw (paw withdrawal threshold) ([5]; FIG. 65): dose-related increase in the antinociceptive potency
dose-response of antinociceptive effect (AUC versus dose) [5]: distinct increase and then plateau

C[C@]12CCC(=O)C=C1CC[C@@H]1[C@@H]2[C@@H](O)C[C@@]2(C)[C@H]1CC[C@]2(O)C(=O)CO [hydrocortisone]
effect on late phase [1]: affected

CC(=O)Oc1ccccc1C(=O)O [aspirin]
analgesia in both phases of the formalin test [1]: analgesic in a dose dependent manner in both phases
inhibition of acetic acid induced writhing [6]: 80%
inhibition of p-phenylquinone induced writhing [7]: 85%
ED50 [3]: 125 mg/kg

CC(=O)OC1C(OC2OCC(OC(=O)c3ccccc3)C(OC(=O)C(C)C(C)OC(=O)c3ccccc3)C2O)C(C)(C)CC2C3=CCC4C5(C)CCC(OC6OC(C(=O)O)C(O)C(OC7OCC(O)C(O)C7O)C6OC6OC(CO)C(O)C(O)C6O)C(C)(C)C5CCC4(C)C3(C)CC(O)C21CO [Compound F70.3.6, 3-O-β-D-xylopyranosyl(1→3)-[β-D-galactopyranosyl(1→2)]-β-D-glucuronopyranosyl-21-O-[3-(3-benzoyl-2-methylbutanoyl)-4-benzoyl-α-L-arabinopyranosyl]-22-O-acetyl barringtogenol C]
Duration [4, 11]: 5 min
Intensity [4, 11]: 1
No of rats observed with side-effect [4, 11]: 1/3
Onset [4, 11]: 15 min
Side effect ([4]; i.v. 0.005 mg/kg, Table 20): Body
Duration [4, 12]: 5 min
Intensity [4, 12]: 1
No of rats observed with side-effect [4, 12]: 1/3
Onset [4, 12]: 30 min
Side effect ([4]; i.v. 0.01 mg/kg, Table 20): Body
Duration [4, 13]: 15 min
Intensity [4, 13]: 1
No of rats observed with side-effect [4, 13]: 1/3
Onset [4, 13]: 45 min
Side effect ([4]; i.v. 0.02 mg/kg, Table 20): Staring
Duration [4, 14]: 30 min
Intensity [4, 14]: 1
No of rats observed with side-effect [4, 14]: 1/1
Onset [4, 14]: 5 min
Duration [4, 15]: 15 min
Intensity [4, 15]: 1
No of rats observed with side-effect [4, 15]: 1/1
Onset [4, 15]: 30 min
Side effect ([4]; i.v. 0.05 mg/kg, Table 20, 0.05 mg/kg, onset 5 min, lasting 30 min): Apnoea
Side effect ([4]; i.v. 0.05 mg/kg, Table 20, 0.05 mg/kg, onset 30 min, lasting 15 min): Staring
antinociception, contralateral (non-inflamed) hindpaw [5]: absence of antinociception
antinociception, ipsilateral hindpaw ([5]; dose range 0.002-0.01 mg/kg, FIG. 66): dose-related increase in the antinociceptive potency
antinociceptive response, ipsilateral hindpaw, on further increases in dose ([5]; doses above 0.01 mg/kg): decreased rather than an increased antinociceptive response
dose-response of antinociceptive effect (AUC versus dose) [5]: distinct increase and then plateau

COc1ccc2cc([C@H](C)C(=O)O)ccc2c1 [naproxen]
effect on late phase [1]: affected

C[S+](C)[O-] [DMSO control, dimethyl sulfoxide]
reduction of pain response by DMSO ([2]; high dose (5%) DMSO): 57%

Cc1ccccc1C(OCCN(C)C)c1ccccc1 (centres unmarked) [orphendarine]
response in both early and late phases [1]: can be reduced

COc1ccc2c(c1)c(CC(=O)O)c(C)n2C(=O)c1ccc(Cl)cc1 [indomethacin]
effect on late phase [1]: affected

CC1(C)CC[C@]2(C(=O)O[C@@H]3O[C@H](CO[C@@H]4O[C@H](CO)[C@@H](O)[C@H](O)[C@H]4O)[C@@H](O)[C@H](O[C@@H]4O[C@H](CO)[C@@H](O)[C@H](O)[C@H]4O)[C@H]3O)CC[C@]3(C)C(=CC[C@@H]4[C@@]5(C)CC[C@H](O[C@@H]6O[C@H](CO)[C@@H](O)[C@H](O)[C@H]6O)[C@@](C)(C(=O)O)[C@@H]5CC[C@]43C)[C@@H]2C1 [Dianoside B]
inhibition of acetic acid induced writhing [3]: significantly inhibit

CC(=O)Nc1ccc(O)cc1 [paracetamol]
analgesia in both phases of the formalin test [1]: analgesic in a dose dependent manner in both phases

barbatoside A
ED50 [3]: 95 mg/kg
